Experimental data reported in patent US6713444B1 (priority 1999, dated 2004).
Ends that are not written are not given here.

Legend:
[1] = biological target: BttxB (Clostridium botulinum, UniProt P10844); format: biochemical
[2] = rat, in vivo, ip
[3] = test system: Bttxs; conditions: cited from earlier work

Sequence of BttxB (P10844 2-441 limits assumed): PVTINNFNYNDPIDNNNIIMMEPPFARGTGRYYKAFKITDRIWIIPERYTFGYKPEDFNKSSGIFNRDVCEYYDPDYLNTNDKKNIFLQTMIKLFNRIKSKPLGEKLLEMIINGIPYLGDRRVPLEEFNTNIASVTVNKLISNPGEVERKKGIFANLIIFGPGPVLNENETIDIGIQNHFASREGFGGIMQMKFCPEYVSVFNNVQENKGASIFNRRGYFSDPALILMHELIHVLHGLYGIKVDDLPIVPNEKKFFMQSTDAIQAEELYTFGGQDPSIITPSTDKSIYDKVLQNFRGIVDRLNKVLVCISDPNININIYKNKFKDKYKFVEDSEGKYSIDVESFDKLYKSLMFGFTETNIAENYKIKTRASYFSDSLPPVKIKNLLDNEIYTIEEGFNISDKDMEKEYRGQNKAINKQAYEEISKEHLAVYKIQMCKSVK

## ThrArgSerSerArgAlaGlyLeuGlnPheProValGlyArgValHisArgLerLeuArgLysGlyAsnTyr [Peptide 24]
[1]
  effectiveness as inhibitor of BttxB activity relative to B-I: about 25%
  substrate of BttxB: not substrates

## Substance P [reference compound]
[1]
  substrate of BttxB: not a substrate

## CC(C)C[C@H](NC(=O)CNC(=O)[C@H](C)NC(=O)[C@H](CCCNC(=N)N)NC(=O)[C@H](CO)NC(=O)[C@H](CO)NC(=O)[C@H](CCCNC(=N)N)NC(=O)[C@@H](NC(=O)[C@H](CCCCN)NC(=O)[C@H](C)NC(=O)[C@H](CCCCN)NC(=O)[C@H](C)NC(=O)[C@H](CCCNC(=N)N)NC(=O)[C@@H](NC(=O)[C@H](CCCCN)NC(=O)CNC(=O)CNC(=O)[C@H](CCC(N)=O)NC(=O)[C@H](CCCCN)NC(=O)CNC(=O)[C@H](CCCNC(=N)N)NC(=O)CNC(=O)[C@H](C)N)C(C)C)[C@@H](C)O)C(=O)N[C@@H](CCC(N)=O)C(=O)N[C@@H](Cc1ccccc1)C(=O)N1CCC[C@H]1C(=O)N[C@H](C(=O)NCC(=O)N[C@@H](CCCNC(=N)N)C(=O)N[C@H](C(=O)N[C@@H](Cc1c[nH]cn1)C(=O)N[C@@H](CCCNC(=N)N)C(=O)N[C@@H](CC(C)C)C(=O)N[C@@H](CC(C)C)C(=O)N[C@@H](CCCNC(=N)N)C(=O)N[C@@H](CCCCN)C(=O)NCC(=O)N[C@@H](CC(N)=O)C(=O)N[C@@H](Cc1ccc(O)cc1)C(=O)O)C(C)C)C(C)C [Buforin I]
[2]
  Plateau (time to reach maximal-plateau level): ≤ 40 min
  time the maximal-plateau level was maintained: up to 4 h
  time to reach ½ the absorbed maximal value: 7.7 min
[1]
  inhibition of BttxB endoprotease activity (in words): dose-dependency and competitively inhibits
  substrate of BttxB: not to be a substrate

## C[C@H](CS)C(=O)N1CCC[C@H]1C(=O)O [captopril]
[3]
  inhibition of Bttxs (in words): not effective inhibitors

## CC(C)C[C@H](NP(=O)(O)O[C@@H]1O[C@@H](C)[C@H](O)[C@@H](O)[C@H]1O)C(=O)N[C@@H](Cc1c[nH]c2ccccc12)C(=O)O [phosphoramidon]
[3]
  inhibition of Bttxs (in words): not effective inhibitors

## TRSRAKGLQFPGLLVHRKGNY [OSP]
[1]
  inhibition of BttxB endoprotease activity (in words): inhibition

## AlaGlyArgGlyLysGlnGlyGlyLysValArgAlaLysAlaLysThrArgSerSerArgAlaGlyLeuGlnPheProValGlyArgValHisArgLeuLeuArglys [Peptide 36]
[1]
  effectiveness as inhibitor of BttxB activity relative to B-I: about 50%
  substrate of BttxB: not substrates
